# Where two headings read alike, the source gives them in different places.
# Legend:
# [1] = biological target: Gal-3 (Homo sapiens, UniProt P17931); conditions: for Galectin-3 (BAL) raw data, Mean (SD): Day 14
# Experimental: (§1) All patients, investigators, sites and study sponsor personnel were blinded to the study group assignments throughout the study. Patients underwent study-specific assessments on days 2, 3, 7, 14 and 15, and a post-study assessment was carried out 26–30 days after the last day of the study period. Assessments included vital signs (supine blood pressure, pulse, oxygen saturation, oral temperature and respiratory rate), spirometry, 12-lead ECG, physical examination, laboratory safety screen (haematology, biochemistry, urinalysis and urinary drugs of abuse screen) and blood sampling for PK measurements. All adverse events and concomitant medications were recorded from the time of the screening visit until the post-study follow-up visit. BAL was performed at day −1 (24 h before the first dose) and at day 14 (2 h after the last dose). The BAL procedure was performed as per international guidelines. Briefly, 240 mL of 0.9% saline at room temperature was instilled in 40 mL aliquots into the right middle lobe and aspirated by suction after each aliquot.
# (§2) BAL cells were separated from fluid by centrifugation, and cells were collected, stained with antibodies (supplementary material) and then fixed before analysis using a LSR Fortessa flow cytometer (Becton Dickinson, Franklin Lakes, NJ, USA). Data were analysed using FlowJo software (Tree Star, Ashland, OR, USA). Macrophages were identified as having high side scatter properties and human leukocyte antigen-DR positivity. Gal-3 expression (mean fluorescence intensity) was determined from the macrophage gate (supplementary figures S1 and S2). […] Samples were analysed by magnetic Luminex assay (R&D Systems, Minneapolis, MN, USA) or ELISA.
# (§3) For part 2 of the study, placebos were combined from the three dose-specific cohorts into a pooled control group (n=9). For alveolar macrophage Gal-3 expression and the plasma biomarkers, ANCOVA was performed for percentage of baseline ((day 14/day 1)×100). The ANCOVA model included effects for treatment group and baseline (day 1) value. […] An additional analysis including dose as a continuous covariate was also performed. The Pearson correlation coefficient (r) and associated p-value were calculated for percentage of baseline and day 14 values between plasma biomarkers and alveolar macrophage Gal-3 expression. […] The analysis is exploratory and there was no pre-planned adjustment for multiple testing; the study was not powered for this. Alveolar macrophage Gal-3 expression was considered the primary exploratory analysis with the pre-selected biomarkers secondary. A Bonferroni correction for multiple testing of the secondary end-points comparing the 10 mg group with placebo gives a critical value of 0.0063. Data are presented as the difference in least square means with 95% confidence interval and p-value unless otherwise stated. All analyses were performed using SAS version 9.4 (SAS Institute, Cary, NC, USA).
# BAL cells were separated from fluid by centrifugation and BAL cells were collected, stained with antibodies then fixed before analysis using a LSRFortessa™ flow cytometer (Becton Dickinson, NJ, USA). Data were analysed using FlowJo software (Becton Dickinson, NJ, USA). After exclusion of doublets and debris a sequential gating strategy was employed to identify cell populations based on surface marker expression. The antibodies used were Gal-3-FITC, CD19-PE, HLA-DR PEcy7, CD14-APC, CD16-pacific-blue, CD11b perCPcy5.5, […]
# Biolegend except Gal-3-FITC which was from Cedarlane. Macrophages were identified as having high side scatter properties and HLA-DR positivity. Gal-3 expression (mean fluorescence intensity, MFI) was determined from the macrophage gate. Macrophage subsets were classed as M1, M2a and M2c based on the relative expression of CD206 and CD163 as […]
# ve gate the relative % of neutrophils (CD19-/CD16+), B cells (CD19+), natural killer (NK) cells (CD56+), NK T-cells (NKT) cells (CD56+/CD3+), CD4 T cells (CD3+/CD4+) and CD8 T cells
# [2] = test system: Osteopontin; assay: Plasma biomarker osteopontin; type: in vivo, human; conditions: for Osteopontin raw data, Mean (SD) / Osteopontin least square means % baseline±SEM: IPF patients
# Experimental: as §1, §2
# as §3, with “USA). […]” for “USA).”
# Sequence of Gal-3 (P17931 whole entry): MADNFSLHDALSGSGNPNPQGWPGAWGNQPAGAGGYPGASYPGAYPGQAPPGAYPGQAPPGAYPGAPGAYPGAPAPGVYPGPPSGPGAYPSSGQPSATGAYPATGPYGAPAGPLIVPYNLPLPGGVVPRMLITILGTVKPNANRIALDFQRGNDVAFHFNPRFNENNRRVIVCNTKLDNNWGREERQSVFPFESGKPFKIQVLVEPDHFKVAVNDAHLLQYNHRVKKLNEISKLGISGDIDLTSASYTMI
smiles,measurement,setting,value
OC[C@H]1O[C@@H](S[C@@H]2O[C@H](CO)[C@H](O)[C@H](n3cc(-c4cccc(F)c4)nn3)[C@H]2O)[C@H](O)[C@@H](n2cc(-c3cccc(F)c3)nn2)[C@H]1O [TD139],"Gal-3 expression on BAL macrophages, percentage of baseline at day 14, difference compared with placebo",[1]; 3 mg dose group,−38.66%
same,"Gal-3 expression on BAL macrophages, percentage of baseline at day 14, difference compared with placebo",[1]; 10 mg dose group,−44.63%
same,Gal-3 (BAL) Bayesian probability of effect,"[1]; BAL macrophages, 10 mg vs placebo",99.14
same,Gal-3 (BAL) difference in least square means % baseline (95% CI),"[1]; BAL macrophages, 10 mg vs placebo, ANCOVA",−44.6 (−80.4– −8.8) % baseline
same,"Galectin-3 (BAL) raw data, Mean (SD)","[1]; IPF patients, BAL macrophages, 0.3 mg",7794.8 (2990.48) pg/ml
same,"Galectin-3 (BAL) raw data, Mean (SD)","[1]; IPF patients, BAL macrophages, 3 mg",8058.6 (3001.05) pg/ml
same,"Galectin-3 (BAL) raw data, Mean (SD)","[1]; IPF patients, BAL macrophages, 10 mg",5237 (2033.86) pg/ml
same,Gal-3 (BAL) least square means % baseline±SEM,"[1]; IPF patients, BAL macrophages, day 14, 0.3 mg once daily",67.9±12.1 % baseline
same,Gal-3 (BAL) least square means % baseline±SEM,"[1]; IPF patients, BAL macrophages, day 14, 3 mg once daily",43.0±11.7 % baseline
same,Gal-3 (BAL) least square means % baseline±SEM,"[1]; IPF patients, BAL macrophages, day 14, 10 mg once daily",37.1±13.5 % baseline
same,"Galectin-3 (BAL), analysis including dose as a continuous covariate: Estimate","[1]; IPF patients, BAL macrophages, percentage of baseline",-4.19
same,correlation between TD139 in AMs and percentage of baseline in surface macrophage Gal-3 (r),"[1]; IPF patients, day 14",−0.63 (95% CI −0.86– −0.18)
same,Emax (AM surface Gal-3 percentage of baseline),"[1]; fitted maximum effect model vs macrophage TD139 concentration, (95% CI)",4.5 (−44.0–35.9)
same,Osteopontin difference in least square means % baseline (95% CI),"[2]; 10 mg vs placebo, ANCOVA",−26.8 (−88.0–34.3) % baseline
same,"Osteopontin raw data, Mean (SD)","[2]; Day 14, 0.3 mg",37756 (20451.51) pg/ml
same,"Osteopontin raw data, Mean (SD)","[2]; Day 14, 3 mg",31032.4 (13230.48) pg/ml
same,"Osteopontin raw data, Mean (SD)","[2]; Day 14, 10 mg",48630.5 (37737.51) pg/ml
same,Osteopontin least square means % baseline±SEM,"[2]; day 14, 0.3 mg once daily",106.2±23.9 % baseline
same,Osteopontin least square means % baseline±SEM,"[2]; day 14, 3 mg once daily",84±23.7 % baseline
same,Osteopontin least square means % baseline±SEM,"[2]; day 14, 10 mg once daily",91.3±23.4 % baseline
